In brackets after ≈: the same amount, converted by molar mass.
Tests used:
Type in all cases: functional
Streptococcus pneumoniae [1] = assay: Antibacterial activity against erythromycin-susceptible Streptococcus pneumoniae ATCC 49619 by broth microdilution method
Streptococcus pneumoniae [2] = assay: Antibacterial activity against erythromycin-resistant Streptococcus pneumoniae B1 expressing erm gene by broth microdilution method
Streptococcus pneumoniae [3] = assay: Antibacterial activity against erythromycin-resistant Streptococcus pneumoniae A22072 expressing mef gene by broth microdilution method
Streptococcus pneumoniae [4] = assay: Antibacterial activity against erythromycin-resistant Streptococcus pneumoniae AB11 expressing erm and mef gene by broth microdilution method
Staphylococcus aureus = assay: Antibacterial activity against erythromycin-susceptible Staphylococcus aureus ATCC 25923 by broth microdilution method
Streptococcus pneumoniae [5] = assay: Ratio of clarithromycin MIC to compound MIC for erythromycin-resistant Streptococcus pneumoniae A22072 expressing mef gene
Streptococcus pneumoniae [6] = assay: Ratio of erythromycin MIC to compound MIC for erythromycin-resistant Streptococcus pneumoniae A22072 expressing mef gene

Compound | MIC (Streptococcus pneumoniae [1]) [µg/mL] | MIC (Streptococcus pneumoniae [2]) [µg/mL] | MIC (Streptococcus pneumoniae [3]) [µg/mL] | MIC (Streptococcus pneumoniae [4]) [µg/mL] | MIC (Staphylococcus aureus) [µg/mL] | Ratio (Streptococcus pneumoniae [5]) | Ratio (Streptococcus pneumoniae [6])
CC[C@H]1OC(=O)[C@H](C)[C@@H](O[C@H]2C[C@@](C)(OC)[C@@H](OC(=O)NNC(=O)c3ccc4[nH]c(-c5ccc([N+](=O)[O-])cc5)nc4c3)[C@H](C)O2)[C@H](C)[C@@H](O[C@@H]2O[C@H](C)C[C@H](N(C)C)[C@H]2O)[C@](C)(OC)C[C@@H](C)C(=O)[C@H](C)[C@@H](O)[C@]1(C)O | 0.25 (≈ 0.233 µM) | 16 (≈ 14.9 µM) | 0.03 (≈ 0.028 µM) | 16 (≈ 14.9 µM) | 1 (≈ 0.934 µM) | 133 | 267
CC[C@H]1OC(=O)[C@H](C)[C@@H](O[C@H]2C[C@@](C)(OC)[C@@H](OC(=O)NNC(=O)c3ccc4[nH]c(-c5cccc([N+](=O)[O-])c5)nc4c3)[C@H](C)O2)[C@H](C)[C@@H](O[C@@H]2O[C@H](C)C[C@H](N(C)C)[C@H]2O)[C@](C)(OC)C[C@@H](C)C(=O)[C@H](C)[C@@H](O)[C@]1(C)O | 0.25 (≈ 0.233 µM) | 64 (≈ 59.7 µM) | 1 (≈ 0.934 µM) | 128 (≈ 119 µM) | 0.5 (≈ 0.467 µM) | – | –
CC[C@H]1OC(=O)[C@H](C)[C@@H](O[C@H]2C[C@@](C)(OC)[C@@H](OC(=O)NNC(=O)c3ccc4[nH]c(-c5ccc(C(F)(F)F)cc5)nc4c3)[C@H](C)O2)[C@H](C)[C@@H](O[C@@H]2O[C@H](C)C[C@H](N(C)C)[C@H]2O)[C@](C)(OC)C[C@@H](C)C(=O)[C@H](C)[C@@H](O)[C@]1(C)O | 0.25 (≈ 0.228 µM) | 8 (≈ 7.31 µM) | 0.06 (≈ 0.0548 µM) | 8 (≈ 7.31 µM) | 0.5 (≈ 0.457 µM) | – | –
CC[C@H]1OC(=O)[C@H](C)[C@@H](O[C@H]2C[C@@](C)(OC)[C@@H](OC(=O)NNC(=O)c3ccc4[nH]c(-c5ccc(Br)cc5)nc4c3)[C@H](C)O2)[C@H](C)[C@@H](O[C@@H]2O[C@H](C)C[C@H](N(C)C)[C@H]2O)[C@](C)(OC)C[C@@H](C)C(=O)[C@H](C)[C@@H](O)[C@]1(C)O | 0.25 (≈ 0.226 µM) | 16 (≈ 14.5 µM) | 0.06 (≈ 0.0543 µM) | 16 (≈ 14.5 µM) | 1 (≈ 0.905 µM) | – | –
CC[C@H]1OC(=O)[C@H](C)[C@@H](O[C@H]2C[C@@](C)(OC)[C@@H](OC(=O)NNC(=O)c3ccc4[nH]cnc4c3)[C@H](C)O2)[C@H](C)[C@@H](O[C@@H]2O[C@H](C)C[C@H](N(C)C)[C@H]2O)[C@](C)(OC)C[C@@H](C)C(=O)[C@H](C)[C@@H](O)[C@]1(C)O | 0.12 (≈ 0.126 µM) | 32 (≈ 33.7 µM) | 1 (≈ 1.05 µM) | 32 (≈ 33.7 µM) | 0.5 (≈ 0.526 µM) | – | –
CC[C@H]1OC(=O)[C@H](C)[C@@H](O[C@H]2C[C@@](C)(OC)[C@@H](OC(=O)NNC(=O)c3ccc4[nH]c(C)nc4c3)[C@H](C)O2)[C@H](C)[C@@H](O[C@@H]2O[C@H](C)C[C@H](N(C)C)[C@H]2O)[C@](C)(OC)C[C@@H](C)C(=O)[C@H](C)[C@@H](O)[C@]1(C)O | 0.12 (≈ 0.124 µM) | 8 (≈ 8.3 µM) | 1 (≈ 1.04 µM) | 64 (≈ 66.4 µM) | 0.5 (≈ 0.519 µM) | – | –
CC[C@H]1OC(=O)[C@H](C)[C@@H](O[C@H]2C[C@@](C)(OC)[C@@H](OC(=O)NNC(=O)c3ccc4[nH]c(C(F)(F)F)nc4c3)[C@H](C)O2)[C@H](C)[C@@H](O[C@@H]2O[C@H](C)C[C@H](N(C)C)[C@H]2O)[C@](C)(OC)C[C@@H](C)C(=O)[C@H](C)[C@@H](O)[C@]1(C)O | 0.12 (≈ 0.118 µM) | 32 (≈ 31.4 µM) | 0.12 (≈ 0.118 µM) | 64 (≈ 62.9 µM) | 0.25 (≈ 0.246 µM) | – | –
CCc1nc2cc(C(=O)NNC(=O)O[C@H]3[C@H](C)O[C@@H](O[C@H]4[C@H](C)[C@@H](O[C@@H]5O[C@H](C)C[C@H](N(C)C)[C@H]5O)[C@](C)(OC)C[C@@H](C)C(=O)[C@H](C)[C@@H](O)[C@](C)(O)[C@@H](CC)OC(=O)[C@@H]4C)C[C@@]3(C)OC)ccc2[nH]1 | 0.25 (≈ 0.256 µM) | 32 (≈ 32.7 µM) | 0.12 (≈ 0.123 µM) | 64 (≈ 65.4 µM) | 0.5 (≈ 0.511 µM) | – | –
CCCc1nc2cc(C(=O)NNC(=O)O[C@H]3[C@H](C)O[C@@H](O[C@H]4[C@H](C)[C@@H](O[C@@H]5O[C@H](C)C[C@H](N(C)C)[C@H]5O)[C@](C)(OC)C[C@@H](C)C(=O)[C@H](C)[C@@H](O)[C@](C)(O)[C@@H](CC)OC(=O)[C@@H]4C)C[C@@]3(C)OC)ccc2[nH]1 | 0.12 (≈ 0.121 µM) | 64 (≈ 64.5 µM) | 0.12 (≈ 0.121 µM) | 64 (≈ 64.5 µM) | 0.25 (≈ 0.252 µM) | – | –
CC[C@H]1OC(=O)[C@H](C)[C@@H](O[C@H]2C[C@@](C)(OC)[C@@H](OC(=O)NNC(=O)c3ccc4[nH]c(C(C)C)nc4c3)[C@H](C)O2)[C@H](C)[C@@H](O[C@@H]2O[C@H](C)C[C@H](N(C)C)[C@H]2O)[C@](C)(OC)C[C@@H](C)C(=O)[C@H](C)[C@@H](O)[C@]1(C)O | 0.12 (≈ 0.121 µM) | 16 (≈ 16.1 µM) | 0.12 (≈ 0.121 µM) | 64 (≈ 64.5 µM) | 0.12 (≈ 0.121 µM) | – | –
